# Source: patent publication US7803966B2, “Cosmetic and pharmaceutical compositions comprising compounds that display retinoid like activities” (Johnson & Johnson Consumer France, S.A.S., priority 2007, dated 2010)
# What was measured:
# Assay type in all cases: cell-based
# IL8 [1] = assay: IL8 gene expression in ex vivo human skin explant (QRT-PCR)
# Description: (§1) Ex vivo skin explants were prepared from skin abdominal biopsy after plastic surgery. Skin explants were maintained in culture medium at 37° C. in a water saturated atmosphere for 5 days. […] After 48 hours, half of the explants were taken and epidermal mRNA was extracted and expression of HB-EGF and IL8 genes was measured by Quantitative real time PCR (QRT-PCR). Explants were also fixed and slices were prepared and mounted on glass slides to be examined. Cell proliferation was also assessed by staining the cells with an antibody directed to the Ki67 protein and then counting the number of positive cell per mm (Table 4).
# [2] = system: Ex vivo human skin explant; assay: Cell proliferation (Ki67 staining) in ex vivo human skin explant; conditions: 10^−3 M topical, Control 90, Vehicle 45
# Description: Ex vivo skin explants were prepared from skin abdominal biopsy after plastic surgery. Skin explants were maintained in culture medium at 37° C. in a water saturated atmosphere for 5 days. Compounds G was diluted in a mixture of propylene glycol (30%) and ethanol (70%) at 10^-3 M and topically applied on the explant surface. After 48 hours, half of the explants were taken and epidermal mRNA was extracted and expression of HB-EGF and IL8 genes was measured by Quantitative real time PCR (QRT-PCR). Explants were also fixed and slices were prepared and mounted on glass slides to be examined. Cell proliferation was also assessed by staining the cells with an antibody directed to the Ki67 protein and then counting the number of positive cell per mm (Table 4).
# IL8 [3] = assay: IL8 gene expression in human squamous carcinoma cells (QRT-PCR); conditions: for Effect on IL8 expression (48 h)vs control: vs untreated control
# HB-EGF [4] = assay: HB-EGF gene expression in human squamous carcinoma cells (QRT-PCR); conditions: vs untreated control
# Description: Compound G was tested on Human Squamous Carcinoma Cells for its ability to induce epidermal proliferation factor HB-EGF. For this assay, Human squamous carcinoma cells were seeded in 25 cm^2 flask and cultivated until 80% of cell confluence was reached. Test compounds were added to the culture medium and cells were incubated again 48 hours. At the end of the incubation cells were trypsinized and pelleted. […] was extracted and gene expression was measured with quantitative real time Polymerase Chain Reaction (QRT-PCR) using actin gene expression as internal standard. Variation of gene expression is expressed in percent versus the untreated control. Effect of Compound G on HB-EGF gene expression, assessed by real time QPCR was +187% and +370% vs. control at doses of 10^−6 and 10^−5 M respectively.
# HB-EGF [5] = assay: HB-EGF gene expression in ex vivo human skin explant (QRT-PCR)
# Description: as §1
smiles,measurement,setting,value
O=C(O)COc1ccc(/N=N/c2c(O)ccc3cc(Br)ccc23)cc1 [Compound G],Effect on IL8 expression (48h)vs vehicle,IL8 [1]; 10^−3 M topical,76%
same,Effect on IL8 expression (48h)vs vehicle,IL8 [1]; 10^−4 M topical,65%
same,Cell proliferation (Ki67 + cells),[2],150 positive cell per mm
same,Effect on IL8 expression (48 h)vs control,IL8 [3]; 10^−5 M,44%
same,Effect on IL8 expression (48 h)vs control,IL8 [3]; 10^−6 M,10%
same,IL8 expression induction (in words),"IL8 [3]; ""at this dose"" (10^−6 and 10^−5 M), 48 h",did not significantly induce IL8 expression
same,Effect on HB EGF expression vs control(48 h),HB-EGF [4]; 10^−5 M,370%
same,Effect on HB EGF expression vs control(48 h),"HB-EGF [4]; 10^−5 M, listed as compound G",370%
same,Effect on HB EGF expression vs control(48 h),HB-EGF [4]; 10^−6 M,187%
same,Effect on HB EGF expression vs control(48 h),"HB-EGF [4]; 10^−6 M, listed as compound G",187%
same,Effect on HB EGF expression (48 h) vs vehicle,HB-EGF [5]; 10^−3 M topical,288%
same,Effect on HB EGF expression (48 h) vs vehicle,HB-EGF [5]; 10^−4 M topical,159%
